Assay results taken from patent publication US10011813B2, “Methane oxidation methods and compositions” (California Institute of Technology, priority 2015, dated 2018).
In brackets after ≈: the same amount, converted by molar mass. Several values for one entry are separate records, joined by “and”; a condition that tells them apart may be missing. Identical values can stand only once.

How the values were obtained:
[1] = system: methane seep sediment (ANME archaea); test: AOM rate measurement via 13C-methane (newly formed DIC) in methane seep sediment incubations; assay type: cell-based, ANME-2a and ANME-2c; settings: 22.5° C.
methane seep sediment = test: Control experiments without methane (sediment with AQDS under nitrogen); assay type: cell-based; settings: AQDS 10 mM, after 3 weeks
Protocol: (§1) Quantification of reduced AQDS by iodometry. Reduced AQDS (2,6-AQH2DS) was quantified via iodimetric titration in the anaerobic chamber. A standard solution of ca. 20 mM KI3 was prepared as follows: iodine (254 mg, 2.0 mmol) and potassium iodide (1.66 g, 10 mmol) were dissolved in 100 mL DI water. After 2 days, the clear, dark solution was N2-sparged and brought into the anaerobic chamber. The exact concentration of the KI3 standard solution was quantified to be 19.5 mM via duplicate titration with sodium thiosulfate (exactly 101.5 mM, N2-sparged). Procedure for the quantification of reduced AQDS in the incubations: 1000 μL anaerobic assay solution centrifuged in the anaerobic chamber+200 μL anaerobic HEPES (1.0 M, pH=7.5)+KI3 standard solution as needed until color minimum, added in steps of 100 μL first, then in steps of 10 μL when closer to the equivalence point.
Control experiments without methane. […] To confirm that the methanotrophic microorganisms in the sediment had not been killed during the nitrogen+AQDS incubation, methane was later injected into these incubation bottles after 3 weeks.

[2] = Quantification of AQDS solubility in the incubation medium; assay type: physicochemical
Protocol: Quantification of AQDS solubility in the incubation medium. Different regioisomers of AQDS (1,5-AQDS, 2,6-AQDS and 2,7-AQDS) were separately added to the modified artificial seawater described above, to a targeted final concentration of 25 mM. The suspensions were ultra-sonicated at room temperature to dissolve as much of the AQDS as possible. The tubes were kept at 4° C. or at 22.5° C. overnight. The tubes were centrifuged at 4° C. or 22.5° C. (16000 rcf, 30 min). The supernatant (300 μL) was mixed with 300 μL acetate (10.0 mM) as the internal standard and 100 μL deuterated water (99.9% D, Cambridge Isotope Laboratories) was added. The concentration of AQDS was obtained from integration of the ^1H-NMR spectra by comparison relative to the acetate standard.

ANME-SRB consortia = test: FISH-nanoSIMS 15N incorporation (anabolic activity) of ANME-SRB consortia; assay type: cell-based, ANME-2c archaea and Desulfobacteraceae
Protocol: Incubations for FISH-nanoSIMS and RNA analysis. For AOM incubations with sulfate or AQDS that were used for nanoSIMS (FIG. 7 and FIG. 8A) and RNA analysis (FIG. 6), incubations experiments were set up following the AOM-rate measurements described above (initially containing 1.0 mM ammonium without ^15N label). Methane oxidation rates were tracked in these incubations via the ^13C label. After 11 days, ca. 3.5 mL of supernatant remained in the serum bottles to which 3.0 mL artificial seawater without ammonium containing either 25 mM AQDS, 28 mM sulfate, or no oxidant or electron acceptor was added. Next, 0.1 mL ^15NH4^+ (100 mM) was injected to yield about 2.0 mM ammonium with ca. 75% ^15N. Methane oxidation was monitored. After additional 8 days, the medium of the AQDS incubations was exchanged by 5.0 mL new medium containing 25 mM AQDS and 2.0 mM ^15NH4^+. Now the AQDS incubations contained ca. 95% ^15NH4^+ in the ammonium pool. The cultures were incubated for additional 10 days before harvest. Total incubation time with labeled ammonium: 18 days. Average labeling strength: ca. 75% for sulfate and no oxidant or electron acceptor control; ca. 86% for the AQDS incubations.
For the second independent set of experiments with iron citrate, humic acids and sulfate (FIG. 8B), the medium contained 1.0 mM ammonium with ca. 40% ^15N label throughout the incubation period. These experiments were carried out from identical incubations that were for the AOM rate measurements (highlighted in Table 4). In regards to Table 4, the percentage AOM rates are reported relative to sulfate-coupled AOM (1.50 μmol cm^−3 day^−1). Top: Summary of compounds described in FIG. 1B; Bottom: Oxidants or electron acceptors resulting in an AOM rate less than 0.10 μmol […] day^−1 (<7% rel. to sulfate as oxidant or electron acceptor).
Sampling for FISH-nanoSIMS and RNA. After an 18-day incubation in the presence of ^15NH4^+, each incubation was shaken to suspend the sediment and 1.0 mL sediment slurry was sampled using a disposable sterile needle and syringe (ca. 0.3 mL wet sediment). […]
Sample preparation for aggregate embedding, sectioning, FISH, and nanoSIMS. […] Sections of ca. 1 μm thickness were cut and stretched on a water droplet on a polylysine coated slide with teflon wells (Tekdon Inc) and analyzed by fluorescence in situ hybridization (FISH). […]
FISH conditions and probes. The FISH hybridization on thin sections of resin embedded microbial aggregates followed the recently optimized protocol described in S. E. McGlynn et al. The phylogenetic identity of microorganisms in the thin sections were determined using conventional FISH using oligonucleotide probes fluorescently labeled on both the 5′ and 3′ ends (dual labeled) as outlined herein. […]

[3] = system: methane seep sediment (ANME archaea); test: Quantification of reduced AQDS by iodometry in AOM incubations; assay type: cell-based, ANME-2a and ANME-2c; settings: after 21-day incubation
Protocol: as §1

SMILES: O=C1c2ccc(S(=O)(=O)O)cc2C(=O)c2ccc(S(=O)(=O)O)cc21 [AQDS, 9,10-anthraquinone-2,6-disulfonate]
- AOM rates compared with sulfate [1]: exceeded
- reduced AQDS generated without methane (methane seep sediment): less than 1 mM
- Solubility in the incubation medium ([2]; 4° C.): 900 µM (≈ 332 µg/mL)
- Solubility in the incubation medium ([2]; 22.5° C.): 1900 µM (≈ 700 µg/mL)
- doubling time of ANME cells based on average 15N-incorporation (ANME-SRB consortia; 18 days with 15NH4+): 3.3 months
- anabolic activity within ANME-SRB consortia (ANME-SRB consortia; sulfate-free incubations): occurred only in the ANME archaea
- AQH2DS (final concentration of reduced AQDS) ([3]; AQDS 10 mM + MoO4^2− 25 mM): 9.2 mM and 9.8 mM
- AQH2DS (final concentration of reduced AQDS) ([3]; AQDS 10 mM): 8.6 mM and 9.6 mM
